US20220356169A1, “TETRAZINES FOR HIGH CLICK RELEASE SPEED AND YIELD” (priority 2019, published 2022)

Experiments:
[1] = Second-order rate constant of the IEDDA reaction with TCO 3.2, UV-Vis under second-order conditions in MeCN; format: physicochemical; conditions: MeCN at 20° C.; n = 1
Description: The second-order rate constant of the IEDDA reaction between model TCO 3.2 and activators 2.7 or 2.8 in MeCN at 20° C. was determined (n=1) by UV-Vis spectrometry under second-order conditions. A cuvette was filled with a solution of activator (3 mL 0.083 mM in MeCN), and equilibrated at 20° C. Next, a solution of TCO 3.2 (10.0 μL, 25 mM in DMSO) was added. The absorption at 540 nm was measured every second in a time course experiment. From the decay of this absorption, the conversion x was calculated. The second-order rate constant k2 was determined from the slope of the curve of a plot of 1/c-1/c0 versus time. The second-order rate constant of the IEDDA reaction between model TCO 3.2 and activators 2.7, 2.8, 2.14, 2.16, or 2.17 in 25% MeCN/PBS at 20° C. was determined (n=5) by stopped-flow UV-Vis spectrometry under pseudo first-order conditions. Tetrazine solutions (0.25 mM in 25% MeCN/PBS) and TCO 3.2 (3.45 mM in 25% MeCN/PBS) were mixed in a volume ratio of 1:1, resulting in a concentration of 0.125 mM and 1.73 mM, respectively. The absorption at 520 nm was measured every 50 ms, and from the decay of this absorption, the pseudo first-order rate constant k1′ was determined by a nonlinear Simplex regression analysis of the data points using BioKine software. The second-order rate constant k2 was calculated: k2=k1′/c,TCO. […]

[2] = Cell proliferation assay (MTT); format: cell-based; conditions: human, 3 days incubation, mean ± SEM (n = 6), read-out: LS174T cell viability (%); for viability at 72 h, 0.01 μM: 0.01 μM activator; for viability at 72 h, 0.1 μM: 0.1 μM activator; for viability at 72 h, 1 μM: 1 μM activator
Description: The human colon carcinoma LS174T cell line was obtained from the American Type Culture Collection and cultured in RPMI-1640 medium supplemented with 2 mM glutamine and 10% heat inactivated fetal calf serum. Twenty-four hours prior to the experiment, the cells were plated in 96-well plates at a 5000 cells/well density. The cells were then incubated with serial dilutions (10 nM-1 μM; n=6) of activators 2.7, 2.8, 2.14, 2.16, 2.17, 2.18 and 2.19 in culture medium for 72h at 37° C. The % cell proliferation was assessed by an MTT assay, in comparison to cells incubated in culture medium without activator. No toxicity was observed when the LS174T cells were incubated with the tested activators (and possible metabolites formed in the presence of serum) for 3-days at a 0.01-1 μM activator concentration.

ADC AVP0458-TCO-MMAE = assay: Triggered drug (MMAE) release from ADC in 50% mouse plasma, HPLC-SIM-MS; conditions: for MMAE release from ADC AVP0458-TCO-MMAE, Release (%) / MMAE release level, in words: 50% mouse plasma, 37° C.; for MMAE release level, in words: after 24h incubation
Description: In a 1.5 mL vial, the following was combined: 650 μL mouse plasma, 600 μL PBS, 20 μL ADC (1.62 μg/μL in PBS) and 7.5 μL d8-MMAE solution (0.167 μg/μL, internal standard). Next, aliquots of 20 μL were prepared to which 5.2 μL of a tetrazine solution (0.25 mM in 1:1 DMSO/H2O) was added and the solution was incubated at 37° C. At various times, 100 μL of cold MeCN was added to the aliquot and the mixture was vortexed, stored at 4° C. for 30 min. and centrifuged. 20 μL of supernatant was taken and combined with 100 μL of 1% formic acid (aq) solution. This sample was analysed with HPLC-SIM-MS to quantify the ratio of free MMAE and d8-MMAE, which is a measure of the release yield.

[3] = Activator stability in PBS at rt (UV decay at 520 nm); format: physicochemical; conditions: mean ± SD (n = 3)
Description: The assessment of activator stability was performed in PBS at rt. Solutions in DMSO (2.5 mM, 20 μL) were diluted with PBS (3.00 mL), filtered, and incubated at rt. The decrease of the absorption band at 520 nm was monitored using UV spectroscopy.

[4] = Second-order rate constant of the IEDDA reaction with TCO 3.2, stopped-flow UV-Vis, pseudo first-order conditions; format: physicochemical; conditions: 25% MeCN/PBS at 20° C.; mean ± SD (n = 5)
Description: The second-order rate constant of the IEDDA reaction between model TCO 3.2 and activators 2.7 or 2.8 in MeCN at 20° C. was determined (n=1) by UV-Vis spectrometry under second-order conditions. A cuvette was filled with a solution of activator (3 mL 0.083 mM in MeCN), and equilibrated at 20° C. Next, a solution of TCO 3.2 (10.0 μL, 25 mM in DMSO) was added. The absorption at 540 nm was measured every second in a time course experiment. From the decay of this absorption, the conversion x was calculated. The second-order rate constant k2 was determined from the slope of the curve of a plot of 1/c-1/c0 versus time. The second-order rate constant of the IEDDA reaction between model TCO 3.2 and activators 2.7, 2.8, 2.14, 2.16, or 2.17 in 25% MeCN/PBS at 20° C. was determined (n=5) by stopped-flow UV-Vis spectrometry under pseudo first-order conditions. Tetrazine solutions (0.25 mM in 25% MeCN/PBS) and TCO 3.2 (3.45 mM in 25% MeCN/PBS) were mixed in a volume ratio of 1:1, resulting in a concentration of 0.125 mM and 1.73 mM, respectively. The absorption at 520 nm was measured every 50 ms, and from the decay of this absorption, the pseudo first-order rate constant k1′ was determined by a nonlinear Simplex regression analysis of the data points using BioKine software. The second-order rate constant k2 was calculated: k2=k1′/c,TCO. As expected for a cycloaddition reaction, the reactivity in PBS is much higher than in MeCN, and importantly the tetrazines of the invention are at least 1 order of magnitude more reactive than the known and high-releasing 3,6-bismethyl-tetrazine (2.17), while giving similar release yields (see Example 7).

LS174T xenografts [5] = assay: Therapy study in mice with LS174T xenografts; format: in vivo
Description: Groups of 10 female nude Balb/C mice were s.c. inoculated ca. 1×10^6 LS174T cells in the hindlimb and the therapy study started when the tumors became palpable (5-11 days after tumor cell inoculation). One group was administered four cycles (one cycle every 4 days) of tc-ADC (ca. 4 mg/kg) followed by activator 2.16 (ca. 33.5 μmol/kg) 48 later. Control groups received four cycles of ADC alone, activator alone, or vehicle. Tumor sizes and body weights were measured 2-3 times per week. […] On the contrary, all control mice were euthanized within 3 weeks from the beginning of the treatment due to large tumor size (>1.5 gr) or poor health conditions with a 15.5-17.5 days median survival. Overall, the repeated treatments were tolerated well by the mice, with no overt signs of hematological toxicity that could be attributed to the use of ADC and activator, either in combination or alone.

LS174T xenografts [6] = assay: MMAE measurement in tumors; format: in vivo, mice
Description: Female nude Balb/C mice were subcutaneously inoculated ca. 1×10^6 LS174T cells in the hind limb. Biodistribution studies started when the tumors reached 0.1-0.2 cm^3 size. Experiments were carried out to evaluate the reactivity between the TCO Trigger on tumor-bound ADC and activators 2.7, 2.8, 2.14 and 2.16 in LS174T xenografts, as previously performed for other activators [Rossin et al Nature Communications 2018, 9, 1484]. The activators were administered at a 20- to 100-lower dose than that used in previous activation and therapy studies (ca. 0.335 mmol/kg). […] Groups of tumor bearing mice (n=4) were injected with ^125I-labeled ADC (2 mg/kg) followed 48 h later by the activators (dose 1×: ca. 3.3 μmol/kg; dose 5×: ca. 16.7 μmol/kg) and, after 1 h, by [^111In]In-2.20 (ca. 0.33 μmol/kg). One group was injected with the same amount of ^125I-labeled ADC followed only by ^111In-2.20 49 h later. One group was injected only with ^111In-2.20 (non-specific probe binding). All mice were euthanized 23 h post-probe injection and the ^125I and ^111In uptakes in tumors were measured by γ-counting.
The concentration of MMAE released in tumors was measured as previously reported [Rossin et al Nature Communications 2018, 9, 1484]. […] For this reason, activator 2.16 was selected for a therapy study in combination with the click-cleavable ADC. At the doses of tc-ADC (4 mg/kg) and 2.16 (dose 10×; 33.5 μmol/kg) used for therapy study, a high level of 339±45 nM free MMAE was detected in tumors.

[7] = 2 min after reaction with activator

Row | Structure (SMILES) | Calculated k2 values for the reaction between tetrazine activators and TCO 3.2 in MeCN [1] [M⁻¹ s⁻¹] | viability at 72 h, 0.01 μM [2] [%] | viability at 72 h, 0.1 μM [2] [%] | viability at 72 h, 1 μM [2] [%] | MMAE release from ADC AVP0458-TCO-MMAE, Release (%) (ADC AVP0458-TCO-MMAE; [7]) | MMAE release from ADC AVP0458-TCO-MMAE, Release (%) (ADC AVP0458-TCO-MMAE; 10 min) | MMAE release from ADC AVP0458-TCO-MMAE, Release (%) (ADC AVP0458-TCO-MMAE; 1 h) | MMAE release from ADC AVP0458-TCO-MMAE, Release (%) (ADC AVP0458-TCO-MMAE; 5 h) | MMAE release from ADC AVP0458-TCO-MMAE, Release (%) (ADC AVP0458-TCO-MMAE; 24 h, mean ± SD (n = 3)) | MMAE release level, in words (ADC AVP0458-TCO-MMAE) | MMAE release speed, in words (ADC AVP0458-TCO-MMAE; compared with 2.17) | half-life at 16.6 µM [3] [h] | Calculated k2 values for the reaction between tetrazine activators and TCO 3.2 in PBS [4] [M⁻¹ s⁻¹] | time for which growth of LS174T tumors was completely inhibited (LS174T xenografts [5]; four cycles of tc-ADC (ca. 4 mg/kg) followed by activator 2.16 (ca. 33.5 μmol/kg) 48 later) | median overall survival (LS174T xenografts [5]; four cycles, one cycle every 4 days, treated group: tc-ADC ca. 4 mg/kg + 2.16 ca. 33.5 μmol/kg, controls: ADC alone, activator alone, or vehicle) [days] | MMAE release in tumors, comparison of activators (LS174T xenografts [6]; 5× dose of activator) | free MMAE in tumors, comparison of activators (LS174T xenografts [6]; 24 h after administration of activator at dose 1×)
1 | Oc1cnccc1-c1nnc(-c2ccncc2O)nn1 [2.8, 4,4′-(1,2,4,5-Tetrazine-3,6-diyl)bis(pyridin-3-ol)] | 10 | 96.9 ± 3.6 | 98.4 ± 3.6 | 93.9 ± 5.2 | 48.7 | 83.4 | 92.7 | 93.6 | 94.3 ± 1.3 | as high as that obtained with the less reactive 2.17 | faster | 6.5 ± 0.6 | 270 ± 11 |  |  |  | 
2 | O=C(CCCC(=O)Nc1cnccc1-c1nnc(-c2ccncc2NC(=O)CCCC(=O)NCCOCCOCCOCCOCCOCCOCCOCCOCCOCCO)nn1)NCCOCCOCCOCCOCCOCCOCCOCCOCCOCCO [2.16, N^1,N^1′-(4,4′-(1,2,4,5-Tetrazine-3,6-diyl)bis(pyridine-4,3-diyl))bis(N^5-(29-hydroxy-3,6,9,12,15,18,21,24,27-nonaoxanonacosyl)glutaramide)] |  | 105 ± 7.4 | 96.9 ± 3 | 93.9 ± 2.8 | 1.9 | 19.4 | 70.7 | 82.8 | 95.6 ± 0.6 | as high as that obtained with the less reactive 2.17 |  | 4.2 ± 0.1 | 519 ± 12 | over 3 weeks | 42 | significantly higher release | No difference
3 | Cc1nnc(C)nn1 [2.17, 3,6-bismethyl-tetrazine, reference compound] |  | 90.2 ± 4.5 | 87.9 ± 6.4 | 85.7 ± 7.4 |  |  |  |  |  |  |  |  |  |  |  |  | 
4 | c1ccc(-c2nnc(-c3ccccn3)nn2)nc1 [2.18, 3,6-bis(2-pyridinyl)-tetrazine, reference compound] |  | 101 ± 3 | 101 ± 2.8 | 102 ± 3.6 |  |  |  |  |  |  |  |  |  |  |  |  | 
5 | c1cc(-c2nnc(-c3ccncc3)nn2)ccn1 [2.19, 3,6-bis(4-pyridinyl)-tetrazine, reference compound] |  | 87 ± 2.6 | 88.7 ± 2.5 | 91.3 ± 3 |  |  |  |  |  |  |  |  |  |  |  |  | 
